# According to ChEMBL document CHEMBL1201862, “PubChem BioAssay data set” (2004):
# Calls of active or inactive are those of the source.
# What was measured:
# [1] = P. falciparum late gametocyte killing, dose response, luminescence (AID 1117278); assay type: functional, cell-based;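 also: gametocytes exposed to compound for 24 hours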
# [2] = target: G-protein coupled receptor 55 (Homo sapiens, UniProt Q9Y2T6); assay: GPR55 antagonists blocking LPI-driven arrestin recruitment, primary screen, imaging, U2OS, beta-arrestin-GFP, LPI agonist (AID 2013); assay type: functional;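 also: antagonist potency measured as reduced agonist-driven arrestin aggregation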
# Chain of G-protein coupled receptor 55 (Q9Y2T6 whole entry): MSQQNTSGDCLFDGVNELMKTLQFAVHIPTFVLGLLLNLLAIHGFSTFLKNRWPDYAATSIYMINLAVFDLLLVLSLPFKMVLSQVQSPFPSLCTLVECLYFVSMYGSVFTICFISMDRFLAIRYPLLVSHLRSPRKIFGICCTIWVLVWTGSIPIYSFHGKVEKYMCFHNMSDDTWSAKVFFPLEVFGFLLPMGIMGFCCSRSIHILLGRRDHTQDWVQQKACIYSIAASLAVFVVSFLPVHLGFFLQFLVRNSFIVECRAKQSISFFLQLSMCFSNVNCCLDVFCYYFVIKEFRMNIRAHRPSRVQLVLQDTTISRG
# [3] = target: T1, Heat shock factor protein 1 (Mus musculus, UniProt P38532); assay: HSF1 potentiators in luciferase reporter cells, confirmation, cell-based, NIH3T3, luminescence, dose retest (AID 435004); assay type: functional;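 also: stress induced by proteasome inhibitor MG132 added 30 min after compound; luciferase reporter driven by HSF1 response element in NIH3T3 cells; actives raise luminescence as potentiators of the MG132 stress response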
# T1 sequence (P38532 whole entry): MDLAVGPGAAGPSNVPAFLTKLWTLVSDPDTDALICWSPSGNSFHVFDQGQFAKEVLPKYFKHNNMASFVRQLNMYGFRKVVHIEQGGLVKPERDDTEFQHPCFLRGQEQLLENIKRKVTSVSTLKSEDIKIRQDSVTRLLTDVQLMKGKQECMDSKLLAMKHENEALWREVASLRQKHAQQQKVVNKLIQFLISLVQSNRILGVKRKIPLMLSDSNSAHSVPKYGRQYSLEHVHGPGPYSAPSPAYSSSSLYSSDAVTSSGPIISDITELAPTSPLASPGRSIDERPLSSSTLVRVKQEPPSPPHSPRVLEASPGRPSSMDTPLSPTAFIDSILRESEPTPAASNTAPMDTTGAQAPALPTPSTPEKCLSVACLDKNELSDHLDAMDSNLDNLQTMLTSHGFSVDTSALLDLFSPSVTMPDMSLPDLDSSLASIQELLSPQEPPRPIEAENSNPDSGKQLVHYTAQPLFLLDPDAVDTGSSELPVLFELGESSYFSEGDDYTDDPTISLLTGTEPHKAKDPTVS
# [4] = Jurkat T cell cytotoxicity, dose response, cytotoxicity control for P. falciparum gametocyte viability project, luminescence (AID 1117277); assay type: functional, cell-based;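 also: potency reflects loss of cellular ATP meaning fewer viable cells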
# Protein Rev = Protein Rev (Human immunodeficiency virus type 1 group M subtype B (isolate HXB2)(HIV-1), UniProt P04618); assay: inhibitors of Rev binding to RRE RNA, dose response, biochemical, fluorescence polarization, HIV-1 (AID 434976); set-up: species or system Human immunodeficiency virus 1
# Chain of Protein Rev (P04618 whole entry): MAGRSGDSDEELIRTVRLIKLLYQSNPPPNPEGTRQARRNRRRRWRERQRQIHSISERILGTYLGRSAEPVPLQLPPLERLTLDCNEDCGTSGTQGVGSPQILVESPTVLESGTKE
# [5] = target: Female germline-specific tumor suppressor gld-1 (Caenorhabditis elegans, UniProt Q17339); assay: inhibitors of GLD-1 binding to TGE RNA, dose response, biochemical, fluorescence polarization, C. elegans (AID 2802);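 also: fluorescence polarization of labeled TGE RNA bound by purified gld-1 protein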
# [6] = target: T2, RNA-binding protein pos-1 (Caenorhabditis elegans, UniProt G5EF15); assay: inhibitors of POS-1/mex-3 RNA binding, dose response, biochemical, fluorescence polarization (AID 1964);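 also: purified POS-1 fused to maltose binding protein made in E. coli; potency of compounds blocking POS-1 binding to fluorescent RNA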
# T2 sequence (G5EF15 whole entry): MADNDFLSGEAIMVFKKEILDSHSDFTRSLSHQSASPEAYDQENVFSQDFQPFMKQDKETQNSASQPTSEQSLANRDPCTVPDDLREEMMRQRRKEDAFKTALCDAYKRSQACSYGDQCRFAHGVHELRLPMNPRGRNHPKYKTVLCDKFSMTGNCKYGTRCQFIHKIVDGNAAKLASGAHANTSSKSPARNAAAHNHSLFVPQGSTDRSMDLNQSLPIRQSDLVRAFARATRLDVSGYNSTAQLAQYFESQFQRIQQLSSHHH
# [7] = target: T3, Zinc finger protein mex-5 (Caenorhabditis elegans, UniProt Q9XUB2); assay: MEX-5/TCR-2 RNA interaction inhibitors, dose response, biochemical, C. elegans, fluorescence polarization (AID 1960)
# T3 sequence (Q9XUB2 whole entry): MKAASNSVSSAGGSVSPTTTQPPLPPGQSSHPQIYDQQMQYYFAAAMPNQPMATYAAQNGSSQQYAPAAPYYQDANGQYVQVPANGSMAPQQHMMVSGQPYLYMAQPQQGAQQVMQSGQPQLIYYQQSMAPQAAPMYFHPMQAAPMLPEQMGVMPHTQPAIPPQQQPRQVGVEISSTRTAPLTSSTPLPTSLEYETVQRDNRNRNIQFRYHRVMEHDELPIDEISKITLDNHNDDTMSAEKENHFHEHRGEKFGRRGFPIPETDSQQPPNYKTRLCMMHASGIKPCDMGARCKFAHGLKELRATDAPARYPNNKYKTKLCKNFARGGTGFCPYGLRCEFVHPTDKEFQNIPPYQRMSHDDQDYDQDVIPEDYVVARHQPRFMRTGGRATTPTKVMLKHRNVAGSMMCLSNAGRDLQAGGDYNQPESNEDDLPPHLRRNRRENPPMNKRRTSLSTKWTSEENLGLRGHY
# [8] = target: T4, Histone-lysine N-methyltransferase NSD2 (Homo sapiens, UniProt O96028); assay type: biochemical
# T4 sequence (O96028 whole entry): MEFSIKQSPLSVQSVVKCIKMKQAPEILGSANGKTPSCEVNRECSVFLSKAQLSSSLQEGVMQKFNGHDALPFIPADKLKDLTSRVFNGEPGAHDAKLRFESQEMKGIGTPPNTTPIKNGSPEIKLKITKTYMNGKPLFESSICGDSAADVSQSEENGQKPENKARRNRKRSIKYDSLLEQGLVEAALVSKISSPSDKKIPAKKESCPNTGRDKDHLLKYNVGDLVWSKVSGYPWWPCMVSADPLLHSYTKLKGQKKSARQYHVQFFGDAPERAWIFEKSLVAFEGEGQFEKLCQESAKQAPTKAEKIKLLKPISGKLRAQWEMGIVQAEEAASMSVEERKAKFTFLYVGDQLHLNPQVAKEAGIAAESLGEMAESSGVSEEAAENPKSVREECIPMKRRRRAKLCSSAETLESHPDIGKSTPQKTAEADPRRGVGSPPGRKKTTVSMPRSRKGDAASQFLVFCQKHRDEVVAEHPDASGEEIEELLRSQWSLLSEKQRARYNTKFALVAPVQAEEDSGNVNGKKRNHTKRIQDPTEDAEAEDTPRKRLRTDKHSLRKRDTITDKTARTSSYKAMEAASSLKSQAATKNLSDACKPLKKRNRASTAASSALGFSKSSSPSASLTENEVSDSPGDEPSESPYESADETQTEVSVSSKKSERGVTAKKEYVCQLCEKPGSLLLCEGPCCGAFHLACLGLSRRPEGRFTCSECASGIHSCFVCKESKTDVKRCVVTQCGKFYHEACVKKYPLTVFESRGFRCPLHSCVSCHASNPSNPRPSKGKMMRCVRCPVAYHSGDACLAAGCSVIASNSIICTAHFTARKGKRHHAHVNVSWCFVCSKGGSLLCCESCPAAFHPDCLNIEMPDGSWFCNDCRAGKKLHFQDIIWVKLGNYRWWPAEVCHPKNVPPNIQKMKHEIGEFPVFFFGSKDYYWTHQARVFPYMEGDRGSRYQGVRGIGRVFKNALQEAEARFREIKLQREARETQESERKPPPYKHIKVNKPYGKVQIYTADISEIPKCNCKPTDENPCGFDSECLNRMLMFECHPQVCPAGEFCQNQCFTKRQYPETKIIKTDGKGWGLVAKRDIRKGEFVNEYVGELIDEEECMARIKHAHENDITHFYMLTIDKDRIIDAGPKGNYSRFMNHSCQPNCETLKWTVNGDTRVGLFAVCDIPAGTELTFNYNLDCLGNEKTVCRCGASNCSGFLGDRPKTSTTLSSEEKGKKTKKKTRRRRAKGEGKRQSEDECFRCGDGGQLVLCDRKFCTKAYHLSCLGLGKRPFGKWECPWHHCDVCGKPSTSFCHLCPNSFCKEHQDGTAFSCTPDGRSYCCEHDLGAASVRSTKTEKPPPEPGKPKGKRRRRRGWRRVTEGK
# ORF 73 = ORF 73 (Human herpesvirus 8, UniProt O40947); assay: inhibitors of C-LANA binding to LBS DNA, dose response, biochemical, fluorescence polarization, cherry-picked samples (AID 504725); set-up: species or system Human gammaherpesvirus 8;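 also: fluorescence polarization of a labeled DNA duplex reporting LANA DNA binding; potency is for inhibitors that block LANA binding to the DNA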
# Bcl-2-like protein 1 = Bcl-2-like protein 1 (Homo sapiens, UniProt Q07817); assay: BCL-XL inhibitors, dose response, selectivity assay for MCL1 inhibitor project, biochemical, fluorescence polarization, 1536-well (AID 2218)
# Chain of Bcl-2-like protein 1 (Q07817 whole entry): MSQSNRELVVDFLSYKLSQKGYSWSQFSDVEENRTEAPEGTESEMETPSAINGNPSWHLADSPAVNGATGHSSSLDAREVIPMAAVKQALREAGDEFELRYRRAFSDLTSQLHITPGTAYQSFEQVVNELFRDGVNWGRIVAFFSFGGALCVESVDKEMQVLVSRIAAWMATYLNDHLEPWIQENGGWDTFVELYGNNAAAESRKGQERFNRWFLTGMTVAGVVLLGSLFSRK
# Large T antigen = Large T antigen (Simian virus 40, UniProt P03070); assay type: functional, Betapolyomavirus macacae;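 also: Confirmatory-stage PubChem screen for compounds that inhibit SV40 T antigen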
# Chain of Large T antigen (P03070 whole entry): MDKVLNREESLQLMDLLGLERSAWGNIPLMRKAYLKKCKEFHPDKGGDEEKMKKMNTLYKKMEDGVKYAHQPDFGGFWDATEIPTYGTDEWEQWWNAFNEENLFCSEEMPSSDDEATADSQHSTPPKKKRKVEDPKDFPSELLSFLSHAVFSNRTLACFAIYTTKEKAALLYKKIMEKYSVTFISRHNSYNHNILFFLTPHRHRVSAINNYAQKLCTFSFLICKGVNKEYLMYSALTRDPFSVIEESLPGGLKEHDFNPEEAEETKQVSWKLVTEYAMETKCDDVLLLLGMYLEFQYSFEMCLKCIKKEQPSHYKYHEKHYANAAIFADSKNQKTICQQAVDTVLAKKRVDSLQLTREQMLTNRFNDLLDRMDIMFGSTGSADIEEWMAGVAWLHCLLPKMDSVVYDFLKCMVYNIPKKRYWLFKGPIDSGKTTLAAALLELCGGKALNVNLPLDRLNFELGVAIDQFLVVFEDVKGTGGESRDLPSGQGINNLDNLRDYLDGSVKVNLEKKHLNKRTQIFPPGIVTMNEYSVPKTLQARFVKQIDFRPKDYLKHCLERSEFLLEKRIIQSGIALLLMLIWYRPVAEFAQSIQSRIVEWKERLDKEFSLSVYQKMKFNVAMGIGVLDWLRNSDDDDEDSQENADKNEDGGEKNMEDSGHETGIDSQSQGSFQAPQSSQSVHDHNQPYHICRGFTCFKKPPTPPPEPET
# [9] = target: Intestinal-type alkaline phosphatase (Mus musculus, UniProt P24822); assay: PubChem AID 488785; assay type: functional
# [10] = target: T5, Alkaline phosphatase, tissue-nonspecific isozyme (Homo sapiens, UniProt P05186); assay: TNAP enzyme inhibition by screening hits, dose response, selectivity assay for mouse IAP inhibitor project, biochemical, human TNAP, uHTS hits (AID 488906); assay type: functional
# T5 sequence (P05186 whole entry): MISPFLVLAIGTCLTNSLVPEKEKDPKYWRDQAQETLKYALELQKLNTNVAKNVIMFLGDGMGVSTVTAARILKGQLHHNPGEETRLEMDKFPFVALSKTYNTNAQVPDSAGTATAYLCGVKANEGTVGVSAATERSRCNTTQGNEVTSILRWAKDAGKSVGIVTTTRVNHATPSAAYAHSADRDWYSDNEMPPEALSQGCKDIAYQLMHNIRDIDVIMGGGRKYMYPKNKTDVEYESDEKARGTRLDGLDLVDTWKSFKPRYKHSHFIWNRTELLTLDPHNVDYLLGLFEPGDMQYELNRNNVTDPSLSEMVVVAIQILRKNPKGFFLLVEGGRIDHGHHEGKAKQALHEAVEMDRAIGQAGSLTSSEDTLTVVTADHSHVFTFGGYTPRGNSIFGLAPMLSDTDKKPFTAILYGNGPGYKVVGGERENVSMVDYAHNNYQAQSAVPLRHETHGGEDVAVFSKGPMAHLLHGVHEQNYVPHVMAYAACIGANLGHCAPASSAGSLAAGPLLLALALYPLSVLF
# [11] = target: 1-phosphatidylinositol 4,5-bisphosphate phosphodiesterase gamma-1 (Homo sapiens, UniProt P19174); assay: Counterscreen for inhibitors of phospholipase C isozymes (PLC-B3): Fluorescence-based biochemical high throughput dose response assay to identify inhibitors of phospholipase C isozymes (PLC-gamma1).
# Chain of 1-phosphatidylinositol 4,5-bisphosphate phosphodiesterase gamma-1 (P19174 whole entry): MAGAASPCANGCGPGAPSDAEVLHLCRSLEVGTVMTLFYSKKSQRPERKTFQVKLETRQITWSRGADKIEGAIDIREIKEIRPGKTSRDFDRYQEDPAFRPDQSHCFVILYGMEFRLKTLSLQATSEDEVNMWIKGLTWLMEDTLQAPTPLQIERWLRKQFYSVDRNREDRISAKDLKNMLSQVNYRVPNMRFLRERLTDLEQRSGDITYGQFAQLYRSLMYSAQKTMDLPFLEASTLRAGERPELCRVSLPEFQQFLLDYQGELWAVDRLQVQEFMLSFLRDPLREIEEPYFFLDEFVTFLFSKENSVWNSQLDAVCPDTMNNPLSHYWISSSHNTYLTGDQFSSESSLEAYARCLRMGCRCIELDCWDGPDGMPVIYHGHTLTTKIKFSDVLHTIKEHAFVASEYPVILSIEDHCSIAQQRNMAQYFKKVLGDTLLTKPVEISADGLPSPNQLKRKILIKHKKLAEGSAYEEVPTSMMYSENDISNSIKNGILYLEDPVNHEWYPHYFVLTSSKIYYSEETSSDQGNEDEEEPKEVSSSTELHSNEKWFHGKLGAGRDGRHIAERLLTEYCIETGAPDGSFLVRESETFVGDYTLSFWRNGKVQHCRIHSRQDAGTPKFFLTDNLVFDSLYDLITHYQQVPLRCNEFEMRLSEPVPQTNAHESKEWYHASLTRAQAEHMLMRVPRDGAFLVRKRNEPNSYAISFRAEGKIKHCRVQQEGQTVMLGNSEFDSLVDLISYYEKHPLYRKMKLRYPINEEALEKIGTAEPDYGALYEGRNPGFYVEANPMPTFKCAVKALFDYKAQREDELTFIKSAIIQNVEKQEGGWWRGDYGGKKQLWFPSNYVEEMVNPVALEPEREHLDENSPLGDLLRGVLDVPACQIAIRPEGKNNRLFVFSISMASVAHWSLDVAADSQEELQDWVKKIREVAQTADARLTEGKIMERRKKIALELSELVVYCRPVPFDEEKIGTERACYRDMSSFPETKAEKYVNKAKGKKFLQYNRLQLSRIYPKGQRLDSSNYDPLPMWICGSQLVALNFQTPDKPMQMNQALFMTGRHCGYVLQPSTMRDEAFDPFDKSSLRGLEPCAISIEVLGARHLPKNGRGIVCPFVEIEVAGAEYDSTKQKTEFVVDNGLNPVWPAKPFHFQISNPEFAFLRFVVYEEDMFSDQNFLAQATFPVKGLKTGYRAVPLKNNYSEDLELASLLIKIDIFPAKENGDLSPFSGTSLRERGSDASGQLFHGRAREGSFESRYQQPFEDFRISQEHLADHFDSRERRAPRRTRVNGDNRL
# HeLa = assay: HeLa cell cytotoxicity, dose response, cytotoxicity control, 24 h, cherry-picked samples (AID 504726); assay type: functional, cell-based; details: Homo sapiens;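 also: potency for cytotoxicity as loss of luminescence signal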
# [12] = target: Induced myeloid leukemia cell differentiation protein Mcl-1 (Homo sapiens, UniProt Q07820); assay: MCL1-BIM BH3 interaction inhibitors, dose response, biochemical, fluorescence polarization, BIM-BH3 peptide, 1536-well (AID 2217)
# Chain of Induced myeloid leukemia cell differentiation protein Mcl-1 (Q07820 whole entry): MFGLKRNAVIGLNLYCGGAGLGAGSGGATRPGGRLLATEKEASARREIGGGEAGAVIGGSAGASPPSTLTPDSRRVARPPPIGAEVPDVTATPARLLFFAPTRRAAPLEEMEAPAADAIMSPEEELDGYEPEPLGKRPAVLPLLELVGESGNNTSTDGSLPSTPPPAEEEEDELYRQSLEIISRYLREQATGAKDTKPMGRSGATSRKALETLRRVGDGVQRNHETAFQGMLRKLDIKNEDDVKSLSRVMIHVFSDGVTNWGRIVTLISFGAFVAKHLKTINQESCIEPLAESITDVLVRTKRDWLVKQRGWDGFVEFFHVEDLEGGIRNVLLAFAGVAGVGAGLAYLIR
# [13] = target: 1-phosphatidylinositol 4,5-bisphosphate phosphodiesterase beta-3 (Homo sapiens, UniProt Q01970); assay: Fluorescence-based biochemical high throughput dose response assay to identify inhibitors of phospholipase C isozymes (PLC-B3).
# Chain of 1-phosphatidylinositol 4,5-bisphosphate phosphodiesterase beta-3 (Q01970 whole entry): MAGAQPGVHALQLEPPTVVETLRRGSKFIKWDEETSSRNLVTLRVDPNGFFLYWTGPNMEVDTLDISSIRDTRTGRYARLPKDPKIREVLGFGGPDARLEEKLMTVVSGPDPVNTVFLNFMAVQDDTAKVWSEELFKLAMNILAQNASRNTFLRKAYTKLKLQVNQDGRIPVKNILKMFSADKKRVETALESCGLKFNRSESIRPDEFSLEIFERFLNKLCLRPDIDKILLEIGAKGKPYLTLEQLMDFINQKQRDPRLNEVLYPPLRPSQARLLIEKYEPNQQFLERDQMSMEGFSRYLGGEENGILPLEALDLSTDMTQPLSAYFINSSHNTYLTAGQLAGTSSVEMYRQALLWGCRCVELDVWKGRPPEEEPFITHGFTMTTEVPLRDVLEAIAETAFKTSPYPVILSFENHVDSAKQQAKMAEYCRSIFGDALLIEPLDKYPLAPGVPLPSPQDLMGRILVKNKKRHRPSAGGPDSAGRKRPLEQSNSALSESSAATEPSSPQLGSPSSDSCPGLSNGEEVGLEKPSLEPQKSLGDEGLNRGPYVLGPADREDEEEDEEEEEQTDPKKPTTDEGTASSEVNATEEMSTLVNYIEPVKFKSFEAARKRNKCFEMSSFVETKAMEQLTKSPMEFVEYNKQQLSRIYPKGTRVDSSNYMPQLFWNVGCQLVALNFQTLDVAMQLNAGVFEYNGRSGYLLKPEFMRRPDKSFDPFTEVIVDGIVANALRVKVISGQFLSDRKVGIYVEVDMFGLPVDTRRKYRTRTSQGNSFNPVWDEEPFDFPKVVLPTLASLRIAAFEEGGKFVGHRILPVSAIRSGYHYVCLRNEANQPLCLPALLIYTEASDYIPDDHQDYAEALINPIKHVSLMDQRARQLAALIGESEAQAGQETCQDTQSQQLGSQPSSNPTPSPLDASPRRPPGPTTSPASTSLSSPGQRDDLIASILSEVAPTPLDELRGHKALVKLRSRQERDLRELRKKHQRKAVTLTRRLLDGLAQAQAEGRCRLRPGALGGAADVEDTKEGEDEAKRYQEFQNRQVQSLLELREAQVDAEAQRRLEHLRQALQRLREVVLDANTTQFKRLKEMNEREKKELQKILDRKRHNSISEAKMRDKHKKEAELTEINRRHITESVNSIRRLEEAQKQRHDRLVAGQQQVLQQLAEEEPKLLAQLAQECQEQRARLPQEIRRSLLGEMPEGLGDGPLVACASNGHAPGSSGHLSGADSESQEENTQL
# [14] = target: Intestinal-type alkaline phosphatase (Homo sapiens, UniProt P09923); assay: inhibition of human intestinal alkaline phosphatase – biochemical, dose response (AID 488876); assay type: functional
# Chain of Intestinal-type alkaline phosphatase (Homo sapiens, UniProt P09923) (P09923 whole entry): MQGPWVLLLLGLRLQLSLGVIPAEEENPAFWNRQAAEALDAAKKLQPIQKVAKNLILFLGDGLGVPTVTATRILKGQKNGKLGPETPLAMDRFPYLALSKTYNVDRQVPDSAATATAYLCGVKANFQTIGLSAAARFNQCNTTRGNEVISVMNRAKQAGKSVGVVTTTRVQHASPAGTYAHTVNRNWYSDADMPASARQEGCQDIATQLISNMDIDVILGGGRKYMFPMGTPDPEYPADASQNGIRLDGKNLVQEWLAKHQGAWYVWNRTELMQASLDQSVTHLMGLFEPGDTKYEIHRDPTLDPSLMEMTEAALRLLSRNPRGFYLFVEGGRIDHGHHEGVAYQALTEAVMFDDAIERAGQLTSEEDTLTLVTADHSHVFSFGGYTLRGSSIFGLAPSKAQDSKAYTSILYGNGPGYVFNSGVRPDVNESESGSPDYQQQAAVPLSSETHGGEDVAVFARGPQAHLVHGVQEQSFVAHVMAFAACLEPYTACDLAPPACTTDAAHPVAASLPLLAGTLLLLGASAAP
# Genome polyprotein = Genome polyprotein (dengue virus type 2, UniProt P29990); assay: Dengue-2 NS5 methyltransferase inhibitors, primary screen, biochemical, confirmation dose response (AID 588689); assay type: functional
structure (smiles),measurement,setting,value
N#CCC(=O)Nc1ccc(C(=O)OCC(=O)Nc2ccccc2Sc2ccccc2)cc1,IC50,[1],> 109 µM (inactive)
same,IC50,[2],2.17 µM (active)
same,EC50,[3],> 260 µM (inactive)
same,IC50,[4],> 83.3 µM (inactive)
CCN1C/C(=C/c2cccs2)c2nc3ccccc3c(C(=O)O)c2C1,IC50,Protein Rev,17 µM (not active)
same,IC50,[5],9.41 µM (active)
same,EC50,[6],39.2 µM (active)
same,EC50,[7],31.9 µM (active)
O=C(CN1C(=O)/C(=C/c2ccco2)SC1=S)Nc1ccc(O)c(C(=O)O)c1,AC50,[8],> 20 µM (inactive)
same,AC50,ORF 73,98.5 µM (active)
same,IC50,Bcl-2-like protein 1,> 109 µM (not active)
same,IC50,Large T antigen,54.3 µM (active)
same,IC50,[9],5.86 µM (active)
same,IC50,[10],15.1 µM (active)
same,IC50,[11],> 122 µM (inactive)
same,AC50,HeLa,> 350 µM (inactive)
same,IC50,[12],18.5 µM (not active)
same,IC50,[13],> 122 µM (inactive)
same,IC50,[14],13.2 µM (active)
same,IC50,Genome polyprotein,> 100 µM (active)
